{
  "source": "patent US8943743B2",
  "about": "“Device for attracting and controlling the coffee berry borer, Hypothenemus hampei (Coleoptera: Scolytidae)” (Plato Industries Ltd, priority 2008, dated 2015)",
  "key": {"[1]": {"tested_on": "coffee berry borer (CBB), Hypothenemus hampei", "assay": "Third field study 2008 near Alajuela, Costa Rica: damaged berries 70 days after treatment", "assay_type": "in vivo", "conditions": "Costa Rica 2008, 2500 m^2 blocks, 20 TMBs per hectare, 70 days after treatments were initiated", "protocol": "A third study was conducted in 2008 near Alajuela, Costa Rica. In this study, 2500 m^2 blocks treated with either blue and red TMBs at a rate of 20 TMBs per hectare had fewer damaged berries 70 days after treatments were initiated than did the untreated block, the block treated with endosulfan, or the block treated with red plastic traps."}, "[2]": {"tested_on": "coffee berry borer (CBB), Hypothenemus hampei", "assay": "Second field study 2008 near Naranjo, Costa Rica: damaged berries 70 days after treatment", "assay_type": "in vivo", "conditions": "Costa Rica 2008, 2500 m^2 blocks, 20 TMBs per hectare, 70 days after treatments were initiated", "protocol": "A second study was conducted in 2008 near Naranjo, Costa Rica. In this study, blocks treated with either blue and red TMBs had fewer damaged berries 70 days after treatments were initiated than did the untreated block or the block treated with endosulfan. Each block was 2500 m^2 in size and was treated with 20 TMBs per hectare."}},
  "data": [
    {"smiles": "O=S1OCC2C(CO1)C1(Cl)C(Cl)=C(Cl)C2(Cl)C1(Cl)Cl", "note": "(centres unmarked) [endosulfan]", "values": [
      {"measurement": "Mean % infested berries", "setting": "[1]", "value": 5.9, "unit": "%"},
      {"measurement": "Mean % infested berries", "setting": "[2]", "value": 1.15, "unit": "%"}
    ]}
  ]
}
